Source: PubChem BioAssay AID330 (DTP/NCI, 2004)
Where “and” joins values, the source holds several entries; their conditions need not be identical. Identical values can stand only once. Toxic doses and inconclusive results are not listed. How the source made its calls: active means survival T/C of 150% or more; inactive means T/C below 125% in these data. Numbered stars: 1 amine (or outer) side, 2 acyl side, 3 side chain; on linkers, the order of the positions; unused ones are H or OH. Bridge positions count the residues as written; N and C are the ends. Square brackets hold non-standard residues; d marks the D form. Peptide text beside a SMILES is read from it. ξ: configuration not given here. X15 = O=C(/C(=C/c1c[nH]c2ccccc12)N[*:1])[*:2]; X16 = CC(c1c[nH]c2ccccc12)C(N[*:1])C(=O)[*:2]; βAsp = O=C(O)[CH](CC(=O)[*:2])N[*:1]; ξLeu(3ξ-OH) = CC(C)C(O)C(N)C(=O)O; X14 = O=C(C1C(O)CCN1[*:1])[*:2]

Test system: P388 leukemia ip, CD2F1 mice, survival T/C
Test: NCI In Vivo Anticancer Drug Screen. Data for tumor model P388 Leukemia (intraperitoneal) in CD2F1 (CDF1) mice
Conditions: endpoint: median survival time, higher = longer survival
In short: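 Mice carrying the transplanted tumor received test compound or vehicle. Survival was recorded in each group, and the value is the treated-group measurement divided by that of the vehicle-treated control group.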

[1] = dose: 100.0 mg/kg/injection, schedule: Q01DX009 (ip), vehicle: saline with Tween-80
[2] = dose: 200.0 mg/kg/injection, schedule: Q01DX009 (ip), vehicle: saline with Tween-80
[3] = dose: 50.0 mg/kg/injection, schedule: Q01DX005 (ip), vehicle: saline with Tween-80
[4] = dose: 100.0 mg/kg/injection, schedule: Q01DX005 (ip), vehicle: saline with Tween-80
[5] = dose: 200.0 mg/kg/injection, schedule: Q01DX005 (ip), vehicle: saline with Tween-80
[6] = dose: 12.5 mg/kg/injection, schedule: Q01DX009 (ip), vehicle: saline with Tween-80
[7] = dose: 25.0 mg/kg/injection, schedule: Q01DX009 (ip), vehicle: saline with Tween-80
[8] = dose: 60.0 mg/kg/injection, schedule: Q01DX005 (ip), vehicle: Klucel (hydroxypropylcellulose) (HPC)
[9] = dose: 120.0 mg/kg/injection, schedule: Q01DX005 (ip), vehicle: Klucel (hydroxypropylcellulose) (HPC)
[10] = dose: 50.0 mg/kg/injection, schedule: Q01DX009 (ip), vehicle: saline with Tween-80
[11] = dose: 100.0 mg/kg/injection, schedule: Q04DX003 (ip), vehicle: saline with Tween-80
[12] = dose: 200.0 mg/kg/injection, schedule: Q04DX003 (ip), vehicle: saline with Tween-80

Measured: T/C

CC1NC(=O)C(C(C)O)NC(=O)C(NC(=O)C(CO)NC(=O)CC(N)C(=O)O)C(C)OC(=O)C2C(O)CCN2C(=O)C(C(O)C(C)C)NC(=O)C(C(C)c2c[nH]c3ccccc23)NC(=O)/C(=C/c2c[nH]c3ccccc23)NC(=O)C2C(O)CCN2C(=O)CNC1=O (stereo not drawn) (βAsp-STTAG[X14][X15][X16][ξLeu(3ξ-OH)][X14]; ester 2-C; configuration not given here)
inactive: [1] 105 % of control | [2] 89 % of control | dose: 400.0 mg/kg/injection, schedule: Q01DX009 (ip), vehicle: saline with Tween-80 91 % of control

O=C(NCCCl)Oc1c(Cl)cc(Cl)cc1Cl
inactive: dose: 12.5 mg/kg/injection, schedule: Q01DX005 (ip), vehicle: Klucel (hydroxypropylcellulose) (HPC) 106 % of control | dose: 25.0 mg/kg/injection, schedule: Q01DX005 (ip), vehicle: Klucel (hydroxypropylcellulose) (HPC) 104 % of control

CC(C)CNC(=O)c1ccccc1C(=O)NC1(C(=O)NCC(C)C)CCCC1
inactive: [3] 87 % of control | [4] 86 % of control | [5] 94 % of control

Cc1nnn(NC(=O)Cc2ccccc2)c1C
inactive: dose: 100.0 mg/kg/injection, schedule: Q01DX001 (ip), vehicle: Klucel (hydroxypropylcellulose) (HPC) 98 % of control | dose: 200.0 mg/kg/injection, schedule: Q01DX001 (ip), vehicle: Klucel (hydroxypropylcellulose) (HPC) 99 % of control | dose: 400.0 mg/kg/injection, schedule: Q01DX001 (ip), vehicle: Klucel (hydroxypropylcellulose) (HPC) 99 % of control

CCN1CCCC(OC(=O)c2cccc3[nH]ccc23)C1 (stereo not drawn)
inactive: dose: 3.13 mg/kg/injection, schedule: Q01DX009 (ip), vehicle: saline with Tween-80 118 % of control | dose: 6.25 mg/kg/injection, schedule: Q01DX009 (ip), vehicle: saline with Tween-80 103 % of control | [6] 98 % of control | [7] 99 % of control

CC1CC2OC(/C=C/C=C/C=C\C=C\C=C\C(O)=C3\C(=O)C(C(C)C)N(C)C3=O)C(O)C2O1 (stereo not drawn)
inactive: dose: 3.0 mg/kg/injection, schedule: Q01DX005 (ip), vehicle: Klucel (hydroxypropylcellulose) (HPC) 120 % of control and 124 % of control

COC(=O)C(=O)C(C(=O)C=C(C)C)c1nc2n(c1O)C(=N)N=N2 (stereo not drawn)
inactive: dose: 60.0 mg/kg/injection, schedule: Q01DX005 (ip), vehicle: saline 116 % of control | dose: 120.0 mg/kg/injection, schedule: Q01DX005 (ip), vehicle: saline 107 % of control | dose: 240.0 mg/kg/injection, schedule: Q01DX005 (ip), vehicle: saline 104 % of control

CCOc1ccc(N=Nc2c(-c3ccccc3)nn(C(=S)S)c2-c2ccccc2)cc1
inactive: [3] 88 % of control | [4] 92 % of control | [5] 90 % of control

COC(=O)C(CCCN=C(N)N[N+](=O)[O-])NC(=O)c1ccc2c(c1O)C(=O)c1ccccc1C2=O (stereo not drawn)
inactive: dose: 100.0 mg/kg/injection, schedule: Q04DX002 (ip), vehicle: saline with Tween-80 96 % of control | dose: 200.0 mg/kg/injection, schedule: Q04DX002 (ip), vehicle: saline with Tween-80 92 % of control | dose: 400.0 mg/kg/injection, schedule: Q04DX002 (ip), vehicle: saline with Tween-80 92 % of control

CCOC(=O)C(C(=O)OCC)=S1c2ccccc2Sc2ccccc21
inactive: [8] 90 % of control | [9] 89 % of control

C[C@H]1C[C@H]2[C@@H]3CC[C@](O)(C(=O)CO)[C@@]3(C)C[C@H](O)[C@]2(F)[C@@]2(C)C=CC(=O)C=C12
inactive: [6] 95 % of control | [7] 104 % of control | [10] 104 % of control | [11] 109 % of control | [12] 109 % of control | dose: 400.0 mg/kg/injection, schedule: Q04DX003 (ip), vehicle: saline with Tween-80 90 % of control

CN(C)CCCNCCCCNCCCN(C)C
inactive: [10] 105 % of control | [1] 110 % of control | [2] 110 % of control

O=C/C=C/c1ccc2c(c1)OC(CO)C(c1ccc(O)c(O)c1)O2 (stereo not drawn)
inactive: dose: 3.12 mg/kg/injection, schedule: Q01DX005 (ip), vehicle: Klucel (hydroxypropylcellulose) (HPC) 86 % of control | dose: 6.25 mg/kg/injection, schedule: Q01DX005 (ip), vehicle: Klucel (hydroxypropylcellulose) (HPC) 91 % of control

CC(=O)O.[Cd]
inactive: dose: 1.25 mg/kg/injection, schedule: Q01DX009 (ip), vehicle: saline 95 % of control | dose: 1.25 mg/kg/injection, schedule: Q04DX003 (ip), vehicle: saline 90 % of control | dose: 2.5 mg/kg/injection, schedule: Q01DX009 (ip), vehicle: saline 100 % of control | dose: 2.5 mg/kg/injection, schedule: Q04DX003 (ip), vehicle: saline 90 % of control | dose: 5.0 mg/kg/injection, schedule: Q01DX009 (ip), vehicle: saline 100 % of control | dose: 5.0 mg/kg/injection, schedule: Q04DX003 (ip), vehicle: saline 95 % of control

C=C1C(=O)OCC1C(=O)O (stereo not drawn)
inactive: dose: 8.0 mg/kg/injection, schedule: Q01DX009 (ip), vehicle: saline 121 % of control | dose: 16.0 mg/kg/injection, schedule: Q01DX009 (ip), vehicle: saline 114 % of control | dose: 64.0 mg/kg/injection, schedule: Q01DX009 (ip), vehicle: saline 103 % of control

O=C(NN=C(c1ccccc1)c1ccccc1)C(Cl)Cl
inactive: dose: 42.0 mg/kg/injection, schedule: Q01DX009 (ip), vehicle: saline with Tween-80 99 % of control | dose: 84.0 mg/kg/injection, schedule: Q01DX009 (ip), vehicle: saline with Tween-80 97 % of control | dose: 168.0 mg/kg/injection, schedule: Q01DX009 (ip), vehicle: saline with Tween-80 97 % of control

CC1=CC(=NN=c2cc(C)n([O-])c(C)c2)C=C(C)[N+]1=O
inactive: dose: 25.0 mg/kg/injection, schedule: Q01DX009 (ip), vehicle: saline 118 % of control

c1ccc2c(c1)[nH]c1ccncc12
inactive: [7] 95 % of control | [10] 95 % of control

COC(=O)C1(CC(=O)c2ccc3ccccc3c2)NC(=S)NC(=O)C1C#N (stereo not drawn)
inactive: dose: 60.0 mg/kg/injection, schedule: Q01DX005 (ip), vehicle: saline with Tween-80 95 % of control | dose: 120.0 mg/kg/injection, schedule: Q01DX005 (ip), vehicle: saline with Tween-80 95 % of control | dose: 240.0 mg/kg/injection, schedule: Q01DX005 (ip), vehicle: saline with Tween-80 91 % of control

CCOC(=O)C1(O)CC(O)C(O)C(O)C1OC (stereo not drawn)
inactive: dose: 100.0 mg/kg/injection, schedule: Q01DX001 (ip), vehicle: saline with Tween-80 94 % of control | dose: 200.0 mg/kg/injection, schedule: Q01DX001 (ip), vehicle: saline with Tween-80 92 % of control | dose: 400.0 mg/kg/injection, schedule: Q01DX001 (ip), vehicle: saline with Tween-80 94 % of control

CCOc1nnc(-c2ccc(OC)c(OC)c2)o1
inactive: dose: 12.5 mg/kg/injection, schedule: Q01DX009 (ip), vehicle: other 90 % of control | dose: 100.0 mg/kg/injection, schedule: Q01DX009 (ip), vehicle: other 106 % of control | dose: 200.0 mg/kg/injection, schedule: Q01DX009 (ip), vehicle: other 90 % of control

Cc1[nH]nc2c1NC(=O)OC(C)(C)C2
inactive: [3] 106 % of control | [4] 99 % of control | [5] 101 % of control

C=CCOC(=O)CCCC1=NC2=CC=CC3=NC(C)=NC(=N1)N23
inactive: dose: 50.0 mg/kg/injection, schedule: Q04DX003 (ip), vehicle: saline with Tween-80 105 % of control | [11] 99 % of control | [12] 91 % of control

[Cu+2].c1nn[nH]n1
inactive: dose: 12.5 mg/kg/injection, schedule: Q04DX003 (ip), vehicle: Klucel (hydroxypropylcellulose) (HPC) 93 % of control | dose: 25.0 mg/kg/injection, schedule: Q04DX003 (ip), vehicle: Klucel (hydroxypropylcellulose) (HPC) 97 % of control | dose: 50.0 mg/kg/injection, schedule: Q04DX003 (ip), vehicle: Klucel (hydroxypropylcellulose) (HPC) 95 % of control

Cc1cccc(C(O)c2cnc(C)n2Cc2ccccc2)c1 (stereo not drawn)
inactive: [8] 101 % of control | [9] 109 % of control | dose: 240.0 mg/kg/injection, schedule: Q01DX005 (ip), vehicle: Klucel (hydroxypropylcellulose) (HPC) 100 % of control

COc1cc(CC2C(=O)OCC2Cc2cc(OC)c3c(c2)C(CO)C(c2ccc(O)c(OC)c2)O3)ccc1O (stereo not drawn)
inactive: dose: 5.0 mg/kg/injection, schedule: Q01DX009 (ip), vehicle: saline with Tween-80 102 % of control | dose: 10.0 mg/kg/injection, schedule: Q01DX009 (ip), vehicle: saline with Tween-80 118 % of control | dose: 20.0 mg/kg/injection, schedule: Q01DX009 (ip), vehicle: saline with Tween-80 101 % of control | dose: 40.0 mg/kg/injection, schedule: Q01DX009 (ip), vehicle: saline with Tween-80 108 % of control
